{"source": "paper PMC11109052", "about": "“Metabolism characterization and toxicity of N-hydap, a marine candidate drug for lung cancer therapy by LC–MS method” (Natural Products and Bioprospecting, 2024)", "key": {"[1]": {"test_system": "Cyp1a2", "experiment": "Real-time PCR mRNA level after 7 days gavage: Cyp1a2", "assay_type": "in vivo", "conditions": "mice, 2, 5, 10 mg/kg p.o. 7 days; kidneys", "description": "(§1) Mice were randomly divided into four groups, with eight animals in each group. The mice received oral pretreatment with N-hydap for 7 days at doses of 2, 5, and 10 mg/kg/day, which were considered as the low dose, medium dose, and high dose, respectively. Correspondingly, the control group received PBS. On the 8th day, the liver and kidneys were removed, and organs from eight mice per group were combined to prepare MLMs and MKMs using the detailed procedures above. Subsequently, we determined the activity of CYP and UGT enzymes by specific substrate metabolized with MLMs (0.5 mg/mL) and MKMs (0.2 mg/mL) in vitro. […] In the ex vivo experiments, the activity of enzymes was measured by quantifying the production of various metabolites (nM/mg protein/min). […] The measurements were performed using multiple reaction monitoring (MRM) transitions, which are specific mass spectrometry transitions used for quantification. […]\nTotal RNA from liver and kidney samples taken after 7 days of N-hydap gavage was extracted using the Animal Total RNA Isolation Kit (Foregene, Chengdu, Sichuan, China) following the manufacturer’s instructions. The concentrations of total RNA were determined by a nucleic acid concentration tester at 260/280 nm. […]"}, "[2]": {"test_system": "Cyp2e1", "experiment": "Real-time PCR mRNA level after 7 days gavage: Cyp2e1", "assay_type": "in vivo, mice", "parameters": "key to CYP2E1 mNA expression: ↑: up-regulation; ↓: down-regulation; –: no change", "conditions": "for mRNA levels of Cyp2e1: mice, 2, 5, 10 mg/kg p.o. 7 days", "description": "Mice were randomly divided into four groups, with eight animals in each group. The mice received oral pretreatment with N-hydap for 7 days at doses of 2, 5, and 10 mg/kg/day, which were considered as the low dose, medium dose, and high dose, respectively. Correspondingly, the control group received PBS. On the 8th day, the liver and kidneys were removed, and organs from eight mice per group were combined to prepare MLMs and MKMs using the detailed procedures above. Subsequently, we determined the activity of CYP and UGT enzymes by specific substrate metabolized with MLMs (0.5 mg/mL) and MKMs (0.2 mg/mL) in vitro. Specifically, the following selective substrates were used for the respective enzymes: PH (1 μM) for CYP1A2, DIC (1 μM) for CYP2C9, MP (90 μM) for CYP2C19, DM (1 μM) for CYP2D6, CZX (10 μM) for CYP2E1, Tes (1 μM) for CYP3A4, SN38 (1 μM) for UGT1A1, CACD (100 μM) for UGT1A3, Sero (20 μM) for UGT1A6, and Prop (1 μM) for UGT1A9. All substrates were dissolved in methanol or DMSO. The incubation procedure was carried out as mentioned above, and the reaction was terminated with VER (20 ng/mL) in ESI+ mode and CLP (200 ng/mL) in ESI− mode. In the ex vivo experiments, the activity of enzymes was measured by quantifying the production of various metabolites (nM/mg protein/min). The metabolites and their corresponding enzymes are as follows: APAP from PH, 4-OH-DIC from DIC, 4-OH-MP from MP, DXO from DM, 6-OH-CZX from CZX, 6-OH-Tes from Tes, SN38-G from SN38, CACD-G from CACD, Sero-G from Sero, Prop-G from Prop. The measurements were performed using multiple reaction monitoring (MRM) transitions, which are specific mass spectrometry transitions used for quantification. The optimized parameters for each metabolite, such as declustering potential and collision energy, were described in Supplementary Table 1. All experiments were conducted in triplicate, to ensure accuracy and reproducibility.\nTotal RNA from liver and kidney samples taken after 7 days of N-hydap gavage was extracted using the Animal Total RNA Isolation Kit (Foregene, Chengdu, Sichuan, China) following the manufacturer’s instructions. The concentrations of total RNA were determined by a nucleic acid concentration tester at 260/280 nm. A HiScript III RT SuperMix for qPCR (+ gDNA wiper) (Vazyme, Nanjing, Jiangsu, China) was used to measure the concentration of the synthesized cDNA. ChamQ SYBR qPCR Master Mix (Vazyme, Nanjing, Jiangsu, China) and detection were performed using a Light Cycler 480 II (ROCHE, Basel, Switzerland). Real-time PCR was used to analyze the relative mRNA levels of Cyp1a2, Cyp2b10, Cyp2c39, Cyp2d22, Cyp2e1, Cyp3a11, Ugt1a1, Ugt1a6a and Ugt1a9 (human homologs: CYP1A2, CYP2B6, CYP2C19, CYP2D6, CYP2E1, CYP3A4, UGT1A1, UGT1A6, and UGT1A9) in the liver, kidneys, and intestines. […]"}, "[3]": {"test_system": "CYP2B6", "experiment": "Western blot protein level after 7 days gavage: CYP2B6", "assay_type": "in vivo", "conditions": "mice, p.o. 7 days; liver", "description": "as §1\nAfter 7 days of N-hydap gavage, the liver and kidney tissues were lysed using RIPA buffer supplemented with a 1% protease inhibitor cocktail. […] Western blot signals were detected using an ECL chemiluminescence detection agent. The relative intensity of each protein band was scanned and quantified using Image J software."}, "[4]": {"test_system": "Cyp2e1", "experiment": "DME activity ex vivo in MLMs and MKMs: CYP2E1 (6-OH-CZX from CZX)", "parameters": "species or system mice; key: ↑: up-regulation; ↓: down-regulation; –: no change", "description": "as §1, with “vitro. Specifically, the following selective substrates were used for the respective enzymes: PH (1 μM) for CYP1A2, DIC (1 μM) for CYP2C9, MP (90 μM) for CYP2C19, DM (1 μM) for CYP2D6, CZX (10 μM) for CYP2E1, Tes (1 μM) for CYP3A4, SN38 (1 μM) for UGT1A1, CACD (100 μM) for UGT1A3, Sero (20 μM) for UGT1A6, and Prop (1 μM) for UGT1A9. All substrates were dissolved in methanol or DMSO.” for “vitro.”"}, "[5]": {"test_system": "UGT1A3", "experiment": "DME activity ex vivo in MLMs and MKMs: UGT1A3 (CDCA-G)", "parameters": "species or system mice", "description": "as §1, with “vitro. Specifically, the following selective substrates were used for the respective enzymes: PH (1 μM) for CYP1A2, DIC (1 μM) for CYP2C9, MP (90 μM) for CYP2C19, DM (1 μM) for CYP2D6, CZX (10 μM) for CYP2E1, Tes (1 μM) for CYP3A4, SN38 (1 μM) for UGT1A1, CACD (100 μM) for UGT1A3, Sero (20 μM) for UGT1A6, and Prop (1 μM) for UGT1A9. All substrates were dissolved in methanol or DMSO.” for “vitro.”"}, "[6]": {"test_system": "normal wild-type mice", "experiment": "Toxicity of 7-day gavage in normal wild-type mice", "experimental": "During the continuous gavage administration of N-hydap (2, 5, 10 mg/kg) to mice, their body weight was monitored daily and the mice’s activity and mental state were closely observed. […] To assess the extent of injury in the heart, liver, and kidneys, cardiac LDH, plasma ALT, AST, and Cr were measured as biochemical markers (Fig. 7B–D). Additionally, blood routines were examined, including RBC (10^12/L), HCT (%), HGB (g/dL), WBC (10^9/L), PLT (10^9/L), and Lymphocytes (%), which were used as indicators to evaluate spleen toxicity (Fig. 7E). […] To investigate this further, HE staining on tissue sections was performed from both the control group and the highest dose group (10 mg/kg).\nFig. 7 Normal wild-type mice were administered by N-hydap (2, 5, 10 mg/kg) gavage for 7 days. A Changes in body weight in mice. B Cardiac LDH level. C, D Plasma ALT, AST and Cr levels. E Blood routine indicators including RBC, HCT, HGB, WBC, PLT and Lymphocytes. F H&E staining of sections of primary organs, original magnification ×200 (mean ± S.D, n = 5–6/group). ns, no significance, were compared with control group."}, "[7]": {"conditions": "mice, 2, 5, 10 mg/kg gavage, 7 days"}}, "note": "“Also recorded” adds a separate entry of the source.", "data": [{"smiles": "CC1CCC2C(C=CC(C)C2C(=O)c2c(O)c(C3(O)CCC(O)C4OC43)cn(O)c2=O)C1", "note": "(stereo not shown) [N-hydap, N-Hydroxyapiosporamide]", "values": [{"measurement": "decrease of mRNA levels of Cyp1a2", "setting": "[1]", "value": 48, "unit": "%"}, {"measurement": "CYP2E1 mNA expression", "setting": "[2]; Kidney", "value": "↑"}, {"measurement": "CYP2E1 mNA expression", "setting": "[2]; Liver", "value": "–"}, {"measurement": "mRNA levels of Cyp2e1", "setting": "[2]; intestines", "value": "slight reduction"}, {"measurement": "mRNA levels of Cyp2e1", "setting": "[2]; kidney", "value": "modest increase"}, {"measurement": "increase of protein levels of CYP2B6", "setting": "[3]", "value": 92, "unit": "%"}, {"measurement": "CYP2E1 Enzymatic activity", "setting": "[4]; Kidney", "value": "↑"}, {"measurement": "CYP2E1 Enzymatic activity", "setting": "[4]; Liver", "value": "↓"}, {"measurement": "elevation of formation rate of CDCA-G", "setting": "[5]; MLMs and MKMs, range stated jointly for APAP, SN38-G, 6-OH-Tes and CDCA-G", "value": "12%-331%"}, {"measurement": "catalytic activity of UGT1A3", "setting": "[5]; after 7 days of oral administration", "value": "significantly increased"}, {"measurement": "Toxicity LD50, experimental results", "setting": "[6]; Table 4 experimental column", "value": "High security"}, {"measurement": "behavior during gavage", "setting": "[6]; [7]", "value": "did not exhibit any abnormal behavior"}, {"measurement": "biochemical markers (cardiac LDH, plasma ALT, AST, Cr) and blood routine indicators vs control", "setting": "[6]; [7]", "value": "did not show any significant differences"}, {"measurement": "body weight", "setting": "[6]; [7]", "value": "No significant changes"}, {"measurement": "HE staining of important tissues and organs", "setting": "[6]; mice, highest dose group 10 mg/kg, 7 days", "value": "maintained their structural integrity"}, {"measurement": "toxicity of continuous gavage at normal doses", "setting": "[6]; normal wild mice, 2, 5, 10 mg/kg, 7 days", "value": "did not result in significant toxicity; also recorded: did not exhibit any toxicity"}]}]}
